In patent publication US9597407B2, “Targeted antimicrobial moieties” (C3 Jian, Inc., priority 2009, dated 2017):

Tested on: microorganisms
Assay: Morphology, biofilm and growth disruption by peptides (Table 5)
Type: cell-based
Parameters: key: A: Peptide aggregates; B: Less hyphal formation; Clumps; Diffuse clumps and small polyps; F: Diffuse growth; H: Thin; I: Growth inhibition; Microcolony formation; Rippled; Small polyps; Thick; W: Halo formation on top, microlonies on bottom
Source text: In certain embodiments peptides that induce alterations in phenotype or other biological activities can also be used as antimicrobial effector moieties.

## PF-630 (chain 1 IPATPIIHS; chain 2 IPATPIIHS; Peptide with targeting and/or antimicrobial activity)
MRSA
  Organism, effect (morphology, biofilm and growth disruption): MRSA (M)

## PF-615 (FLNRFIFYIFTVKTKSALIKNLFLD; Peptide with targeting and/or antimicrobial activity)
C. jejuni
  Organism, effect (morphology, biofilm and growth disruption): C. jejuni (D)
E. coli
  Organism, effect (morphology, biofilm and growth disruption): E. coli (C)
E. faecalis
  Organism, effect (morphology, biofilm and growth disruption): E. faecalis (D)
MRSA
  Organism, effect (morphology, biofilm and growth disruption): MRSA (D)
S. epidermidis
  Organism, effect (morphology, biofilm and growth disruption): S. epidermidis (D)
S. pneumoniae
  Organism, effect (morphology, biofilm and growth disruption): S. pneumoniae (D)

## PF-303 (EYPWSWISEPWPWDKSFYK; Peptide with targeting and/or antimicrobial activity)
B. subtilis
  Organism, effect: B. subtilis (C)

## PF-592 (IMKNYKYFKLFIVKYALF; Peptide with targeting and/or antimicrobial activity)
C. jejuni
  Organism, effect (morphology, biofilm and growth disruption): C. jejuni (S)
E. coli
  Organism, effect (morphology, biofilm and growth disruption): E. coli (C)
E. faecalis
  Organism, effect (morphology, biofilm and growth disruption): E. faecalis (D)
MRSA
  Organism, effect (morphology, biofilm and growth disruption): MRSA (D)
S. epidermidis
  Organism, effect (morphology, biofilm and growth disruption): S. epidermidis (M)
S. pneumoniae
  Organism, effect (morphology, biofilm and growth disruption): S. pneumoniae (D)

## PF-199 (FPAFSFGAIAGSVSVAR; Peptide with targeting and/or antimicrobial activity)
C. jeikeium
  Organism, effect: C. jeikeium (R)
M. luteus
  Organism, effect: M. luteus (A)
S. epidermidis
  Organism, effect: S. epidermidis (C)

## PF-339 (KKIDILINKYMYLSK; Peptide with targeting and/or antimicrobial activity)
B. subtilis
  Organism, effect: B. subtilis (C)
S. epidermidis
  Organism, effect: S. epidermidis (C)

## PF-145 (GIVLTGRAGLVSGACSMALGVGLG; Peptide with targeting and/or antimicrobial activity)
B. subtilis
  Organism, effect: B. subtilis (C)
C. jeikeium
  Organism, effect: C. jeikeium (R)
C. jejuni
  Organism, effect: C. jejuni (R)
M. luteus
  Organism, effect: M. luteus (A)
MRSA
  Organism, effect: MRSA (M)
S. epidermidis
  Organism, effect: S. epidermidis (D)
S. pneumoniae
  Organism, effect: S. pneumoniae (R)

## PF-571 (SDLLYYPNENREDSPAGVVKEVKE; Peptide with targeting and/or antimicrobial activity)
B. subtilis
  Organism, effect (morphology, biofilm and growth disruption): B. subtilis (D)

## KNKKQTDILEKVKEILDKKKKTKSVGQKLY [PF-538]
S. pneumoniae
  Organism, effect (morphology, biofilm and growth disruption): S. pneumoniae (H)

## PF-C214 (GGHKQLVIEPLVSQ; Peptide with targeting and/or antimicrobial activity)
F. nucleatum
  Organism, effect (morphology, biofilm and growth disruption): F. nucleatum (T)

## PF-415 (MIDVTIGQKSKTGAFNASYSICFSGENFSF; Peptide with targeting and/or antimicrobial activity)
S. pneumoniae
  Organism, effect: S. pneumoniae (D)

## PF-624 (VFLLDSYCFVKINL; Peptide with targeting and/or antimicrobial activity)
E. coli
  Organism, effect (morphology, biofilm and growth disruption): E. coli (C)
M. luteus
  Organism, effect (morphology, biofilm and growth disruption): M. luteus (C)
MRSA
  Organism, effect (morphology, biofilm and growth disruption): MRSA (C)
P. mirabilis
  Organism, effect (morphology, biofilm and growth disruption): P. mirabilis (C)
S. epidermidis
  Organism, effect (morphology, biofilm and growth disruption): S. epidermidis (D)
S. mutans
  Organism, effect (morphology, biofilm and growth disruption): S. mutans (D)
S. pneumoniae
  Organism, effect (morphology, biofilm and growth disruption): S. pneumoniae (D)

## PF-190 (HFILRKPLLFMIHSLKTGPLDRF; Peptide with targeting and/or antimicrobial activity)
C. jeikeium
  Organism, effect: C. jeikeium (R)
S. epidermidis
  Organism, effect: S. epidermidis (C)

## PF-139 (ALSKPAIQARTLCRRQDPP; Peptide with targeting and/or antimicrobial activity)
C. jeikeium
  Organism, effect: C. jeikeium (R)
M. luteus
  Organism, effect: M. luteus (C)
S. epidermidis
  Organism, effect: S. epidermidis (M)

## PF-398 (ILVVLAGILLVVLSYVGISKFKMNC; Peptide with targeting and/or antimicrobial activity)
E. coli
  Organism, effect: E. coli (C)
E. faecalis
  Organism, effect: E. faecalis (C)
MRSA
  Organism, effect: MRSA (C)
S. epidermidis
  Organism, effect: S. epidermidis (C)

## PF-C293 (IIIILPKIYLVCKTV; Peptide with targeting and/or antimicrobial activity)
F. nucleatum
  Organism, effect (morphology, biofilm and growth disruption): F. nucleatum (T)
P. gingivalis
  Organism, effect (morphology, biofilm and growth disruption): P. gingivalis (R)
S. mutans
  Organism, effect (morphology, biofilm and growth disruption): S. mutans (F)

## KFQGEFTNIGQSYIVSASHMSTSLNTGK [PF-583]
MRSA
  Organism, effect (morphology, biofilm and growth disruption): MRSA (I)
S. epidermidis
  Organism, effect (morphology, biofilm and growth disruption): S. epidermidis (I)
S. mutans
  Organism, effect (morphology, biofilm and growth disruption): S. mutans (F)
S. pneumoniae
  Organism, effect (morphology, biofilm and growth disruption): S. pneumoniae (D)

## PF-296 (GAFGMPSIKTNTICGEKGKFISACDAWLSNLK; Peptide with targeting and/or antimicrobial activity)
B. subtilis
  Organism, effect: B. subtilis (C)
S. epidermidis
  Organism, effect: S. epidermidis (C)

## PF-067 (DLIVKVHICFVVKTASGYCYLNKREAQAAI; Peptide with targeting and/or antimicrobial activity)
B. subtilis
  Organism, effect: B. subtilis (C)
C. jeikeium
  Organism, effect: C. jeikeium (D)
C. jejuni
  Organism, effect: C. jejuni (D)
M. luteus
  Organism, effect: M. luteus (R)
MRSA
  Organism, effect: MRSA (M)
P. aeruginosa
  Organism, effect: P. aeruginosa (A)
S. epidermidis
  Organism, effect: S. epidermidis (D)
S. pneumoniae
  Organism, effect: S. pneumoniae (D)

## PF-399 (FPIISALLGAIICIAIYSFIVNRKA; Peptide with targeting and/or antimicrobial activity)
E. coli
  Organism, effect: E. coli (C)
E. faecalis
  Organism, effect: E. faecalis (C)
MRSA
  Organism, effect: MRSA (C)
S. epidermidis
  Organism, effect: S. epidermidis (C)

## TKKIELKRFVDAFVKKSYENYILERELKKLIKAINEELPTK [PF-600]
E. coli
  Organism, effect (morphology, biofilm and growth disruption): E. coli (H)
M. luteus
  Organism, effect (morphology, biofilm and growth disruption): M. luteus (C)
MRSA
  Organism, effect (morphology, biofilm and growth disruption): MRSA (M)
S. epidermidis
  Organism, effect (morphology, biofilm and growth disruption): S. epidermidis (C)
S. mutans
  Organism, effect (morphology, biofilm and growth disruption): S. mutans (S)
S. pneumoniae
  Organism, effect (morphology, biofilm and growth disruption): S. pneumoniae (R)

## PF-516 (ASKQASKQASKQASKQ; Peptide with targeting and/or antimicrobial activity)
S. pneumoniae
  Organism, effect (morphology, biofilm and growth disruption): S. pneumoniae (H)

## PF-455 (MARNDDDIKKIKGTLGQSPEVYGERKLPYT; Peptide with targeting and/or antimicrobial activity)
S. pneumoniae
  Organism, effect (morphology, biofilm and growth disruption): S. pneumoniae (A)

## PF-178 (EVYSSPTNNVAITVQNN; Peptide with targeting and/or antimicrobial activity)
E. coli
  Organism, effect: E. coli (C)
MRSA
  Organism, effect: MRSA (M)
S. epidermidis
  Organism, effect: S. epidermidis (D)
S. pneumoniae
  Organism, effect: S. pneumoniae (D)

## PF-347 (GIFTGVTVVVSLKHC; Peptide with targeting and/or antimicrobial activity)
E. coli
  Organism, effect: E. coli (C)
E. faecalis
  Organism, effect: E. faecalis (C)
MRSA
  Organism, effect: MRSA (C)
S. epidermidis
  Organism, effect: S. epidermidis (C)

## PF-610 (VFLKLKTSKIDLASIIFYP; Peptide with targeting and/or antimicrobial activity)
C. jejuni
  Organism, effect (morphology, biofilm and growth disruption): C. jejuni (D)
E. coli
  Organism, effect (morphology, biofilm and growth disruption): E. coli (C)
E. faecalis
  Organism, effect (morphology, biofilm and growth disruption): E. faecalis (D)
MRSA
  Organism, effect (morphology, biofilm and growth disruption): MRSA (D)
S. epidermidis
  Organism, effect (morphology, biofilm and growth disruption): S. epidermidis (C)
S. pneumoniae
  Organism, effect (morphology, biofilm and growth disruption): S. pneumoniae (D)

## PF-140 (FHRRVIRASEWALTTRSFSTPLRSAAR; Peptide with targeting and/or antimicrobial activity)
C. albicans
  Organism, effect: C. albicans (B)
C. jeikeium
  Organism, effect: C. jeikeium (D)
C. jejuni
  Organism, effect: C. jejuni (D)
M. luteus
  Organism, effect: M. luteus (R)
MRSA
  Organism, effect: MRSA (M)
P. aeruginosa
  Organism, effect: P. aeruginosa (A)
S. epidermidis
  Organism, effect: S. epidermidis (D)
S. pneumoniae
  Organism, effect: S. pneumoniae (D)

## PF-595 (LQNKIYELLYIKERSKLCS; Peptide with targeting and/or antimicrobial activity)
C. jejuni
  Organism, effect (morphology, biofilm and growth disruption): C. jejuni (D)
E. coli
  Organism, effect (morphology, biofilm and growth disruption): E. coli (C)
E. faecalis
  Organism, effect (morphology, biofilm and growth disruption): E. faecalis (D)
MRSA
  Organism, effect (morphology, biofilm and growth disruption): MRSA (D)
S. epidermidis
  Organism, effect (morphology, biofilm and growth disruption): S. epidermidis (C)
S. pneumoniae
  Organism, effect (morphology, biofilm and growth disruption): S. pneumoniae (R)

## GSVIKKRRKRMAKKKHRKLLKKTRIQRRRAGK [PF-527]
B. subtilis
  Organism, effect (morphology, biofilm and growth disruption): B. subtilis (I)
C. albicans
  Organism, effect (morphology, biofilm and growth disruption): C. albicans (B)
C. jeikeium
  Organism, effect (morphology, biofilm and growth disruption): C. jeikeium (I)
C. jejuni
  Organism, effect (morphology, biofilm and growth disruption): C. jejuni (M)
M. luteus
  Organism, effect (morphology, biofilm and growth disruption): M. luteus (S)
MRSA
  Organism, effect (morphology, biofilm and growth disruption): MRSA (I)
P. aeruginosa
  Organism, effect (morphology, biofilm and growth disruption): P. aeruginosa (I)
S. epidermidis
  Organism, effect (morphology, biofilm and growth disruption): S. epidermidis (M)
S. pneumoniae
  Organism, effect (morphology, biofilm and growth disruption): S. pneumoniae (H)

## PF-C089 (MPKRHYYKLEAKALQFGLPFAYSPIQLLK; Peptide with targeting and/or antimicrobial activity)
P. gingivalis
  Organism, effect (morphology, biofilm and growth disruption): P. gingivalis (R)

## PF-293 (YDPLK; Peptide with targeting and/or antimicrobial activity)
S. epidermidis
  Organism, effect: S. epidermidis (C)

## PF-125 (YVVGALVILAVAGLIYSMLRKA; Peptide with targeting and/or antimicrobial activity)
M. luteus
  Organism, effect: M. luteus (C)
S. epidermidis
  Organism, effect: S. epidermidis (D)

## DLLKSLLGQDGAKNDEIIEFIKIIMEK [PF-591]
C. jejuni
  Organism, effect (morphology, biofilm and growth disruption): C. jejuni (C)
E. faecalis
  Organism, effect (morphology, biofilm and growth disruption): E. faecalis (A)
S. pneumoniae
  Organism, effect (morphology, biofilm and growth disruption): S. pneumoniae (R)
